The text below walks through data of patent US8012961B2, “Tricyclic antibiotics” (Actelion Pharmaceutical Ltd., priority 2008, dated 2011).

This test has as its system M. catarrhalis A894. Briefly: MIC determination by microdilution in cation-adjusted Mueller-Hinton Broth (NCCLS). The test is classed as cell-based. The note with it: pH of the test medium 7.2-7.3; for MIC: Moraxella catarrhalis, A894, microdilution method; for MIC M. catarrhalis A894: microdilution method. As for the experimental part: These assays have been performed following the description given in “Methods for dilution Antimicrobial Susceptibility Tests for Bacteria that Grow Aerobically, 4th ed.; Approved standard: NCCLS Document M7-A4; National Committee for Clinical Laboratory Standards: Villanova, Pa., USA, 1997”. Minimal inhibitory concentrations (MICs; mg/l) were determined in cation-adjusted Mueller-Hinton Broth by a microdilution method following NCCLS guidelines (National Committee for Clinical Laboratory Standards. Methods for Dilution Antimicrobial Susceptibility). The pH of the test medium was 7.2-7.3. All Example compounds were tested against several Gram positive and Gram negative bacteria such as S. aureus, E. faecalis, S. pneumoniae, M. catarrhalis or E.coli.
Background: Broth dilution looks for growth in wells or tubes with falling amounts of substance.

Usually MIC stands for the least concentration at which growth counts as inhibited. High values mean a less susceptible organism, low ones a more susceptible organism. On to `COc1ccc2ncc3c(c2n1)C(CN1CC[C@@H](CNCc2ccc4c(n2)NC(=O)CS4)C1)CO3` (mixture of isomers) [Example 14, 6-({[(3S)-1-((1RS)-8-methoxy-1,2-dihydro-3-oxa-5,9-diaza-cyclopenta[a]naphthalen-1-ylmethyl)-pyrrolidin-3-ylmethyl]-amino}-methyl)-4H-pyrido[3,2-b][1,4]thiazin-3-one], for which the minimum inhibitory concentration (MIC) was ≤ 0.031 µg/mL.
In the case of `COc1ccc2ncc3c(c2n1)C(CN1CCO[C@@H](CNCc2ccc4c(n2)NC(=O)CO4)C1)CO3` (mixture of isomers) [Example 24, 6-({[(2S)-4-((1RS)-8-methoxy-1,2-dihydro-3-oxa-5,9-diaz-cyclopenta[a]naphthalen-1-ylmethyl)-morpholin-2-ylmethyl]-amino}-methyl) -4H-pyrido[3,2-b][1,4]oxazin-3-one], the “MIC M. catarrhalis A894” value is recorded as “≦0.031 mg/l”.
As to `COc1ccc2ncc3c(c2n1)C(CN1CCC[C@@H](CNCc2ccc4c(n2)NC(=O)CS4)C1)CO3` (mixture of isomers) [Example 28, 6-({[(3S)-1-((1RS)-8-methoxy-1,2-dihydro-3-oxa-5,9-diaza-cyclopenta[a]naphthalen-1-ylmethyl)-piperidin-3-ylmethyl]-amino}-methyl)-4H-pyrido[3,2-b][1,4]thiazin-3-one], the MIC was ≤ 0.031 µg/mL.
With `COc1ccc2ncc3c(c2n1)C(CN1CCC[C@@H](CNCc2ccc4c(c2)NC(=O)CO4)C1)CO3` (mixture of isomers) [Example 31, 6-({[(3S)-1-((1RS)-8-methoxy-1,2-dihydro-3-oxa-5,9-diaza-cyclopenta[a]naphthalen-1-ylmethyl)-piperidin-3-ylmethyl]-amino}-methyl)-4H-benzo[1,4]oxazin-3-one], the MIC was ≤ 0.031 µg/mL.
As for `COc1ccc2ncc3c(c2n1)C(CN1CC[C@H](NCc2ccc4c(n2)NC(=O)CO4)[C@H](CO)C1)CO3` (relative stereo) [Example 37, 6-{(3R*,4S*)-[3-hydroxymethyl-1-((1RS)-8-methoxy-1,2-dihydro-3-oxa-5,9-diaza-cyclopenta[a]naphthalen-1-ylmethyl)-piperidin-4-ylamino]-methyl}-4H-pyrido[3,2-b][1,4]oxazin-3-one], the MIC was ≤ 0.031 µg/mL.
Regarding `COc1ccc2ncc3c(c2n1)C(CN1CC[C@@H](NCc2cc4c(cn2)OCCO4)[C@@H](F)C1)CO3` (relative stereo) [Example 19, (2,3-dihydro-[1,4]dioxino[2,3-c]pyridin-7-ylmethyl)-[(3S*,4R*)-3-fluoro-1-((1RS)-8-methoxy-1,2-dihydro-3-oxa-5,9-diaza-cyclopenta[a]naphthalen-1-ylmethyl) -piperidin-4-yl]-amine], the MIC is ≤ 0.031 µg/mL.
For `COc1ccc2ncc3c(c2n1)C(CN1CCC(NCc2cc4c(cn2)OCCO4)CC1)CO3` (racemic) [Example 9, rac-(2,3-dihydro-[1,4]dioxino[2,3-c]pyridin-7-ylmethyl)-[1-(8-methoxy-1,2-dihydro-3-oxa-5,9-diaza-cyclopenta[a]naphthalen-1-ylmethyl)-piperidin-4-yl]-amine], the minimum inhibitory concentration (MIC) is ≤ 0.031 µg/mL.
As for `COc1ccc2ccc3c(c2n1)C(CN1CCC(NCc2ccc4c(n2)NC(=O)CO4)CC1)CO3` (racemic) [Example 5, rac-6-{[1-(2-methoxy-8,9-dihydro-furo[2,3-h]quinolin-9-ylmethyl) -piperidin-4-ylamino]-methyl}-4H-pyrido[3,2-b][1,4]oxazin-3-one], the MIC was ≤ 0.031 µg/mL.
On to `COc1ccc2ncc3c(c2n1)C(CN1CCC[C@@H](CNCc2cc4c(nn2)OCCO4)C1)CO3` (mixture of isomers) [Example 39, (6,7-dihydro-[1,4]dioxino[2,3-c]pyridazin-3-ylmethyl)-[(3S)-1-((1RS)-8-methoxy-1,2-dihydro-3-oxa-5,9-diaza-cyclopenta[a]naphthalen-1-ylmethyl)-piperidin-3-ylmethyl]-amine], for which the MIC is ≤ 0.031 µg/mL.
As to `COc1ccc2ncc3c(c2n1)C(CN1CCC(NCc2ccc4c(n2)NC(=O)CO4)CC1)CO3` (racemic) [Example 6, rac-6-{[1-(8-methoxy-1,2-dihydro-3-oxa-5,9-diaza-cyclopenta[a]naphthalen-1-ylmethyl)-piperidin-4-ylamino]-methyl}-4H-pyrido[3,2-b][1,4]oxazin-3-one], the minimal inhibitory concentration (MIC) was ≤ 0.031 µg/mL.
Take `COc1ccc2ncc3c(c2n1)C(CN1CCO[C@@H](CNCc2cc4c(cn2)OCCO4)C1)CO3` (mixture of isomers) [Example 26, (2,3-dihydro-[1,4]dioxino[2,3-c]pyridin-7-ylmethyl) -[(2S)-4-((1RS)-8-methoxy-1,2-dihydro-3-oxa-5,9-diaza-cyclopenta[a]naphthalen-1-ylmethyl)-morpholin-2-ylmethyl]-amine]: the minimal inhibitory concentration (MIC) is ≤ 0.031 µg/mL.
With `COc1ccc2ncc3c(c2n1)C(CN1CCO[C@@H](CNCc2ccc4c(n2)NC(=O)CS4)C1)CO3` (mixture of isomers) [Example 25, 6-({[(2S)-4-((1RS)-8-methoxy-1,2-dihydro-3-oxa-5,9-diaza-cyclopenta[a]naphthalen-1-ylmethyl)-morpholin-2-ylmethyl]-amino}-methyl)-4H-pyrido[3,2-b][1,4]thiazin-3-one], the MIC was ≤ 0.031 µg/mL.
As for `COc1ccc2ncc3c(c2n1)C(CN1CCC[C@@H](CNC/C=C/c2cc(F)ccc2F)C1)CO3` (mixture of isomers) [Example 30], the “MIC M. catarrhalis A894” value is given as “≦0.031 mg/l”.
As for `O=C1COc2ccc(CNC3CCN(CC4COc5cnc6ccc(F)cc6c54)CC3)nc2N1` (racemic) [Example 35, rac-6-{[1-(8-fluoro-1,2-dihydro-furo[2,3-c]quinolin-1-ylmethyl)-piperidin-4-ylamino]-methyl}-4H-pyrido[3,2-b][1,4]oxazin-3-one], the MIC was ≤ 0.031 µg/mL.
On the same count and under the same terms, under `COc1ccc2ccc3c(c2n1)C(CN1CCC(NCc2cc4c(cn2)OCCO4)CC1)CO3` (racemic) [Example 2, rac-(2,3-dihydro-[1,4]dioxino[2,3-c]pyridin-7-ylmethyl)-[1-(2-methoxy-8,9-dihydro-furo[2,3-h]quinolin-9-ylmethyl)-piperidin-4-yl]-amine] stands ≤ 0.031 µg/mL; under `COc1ccc2ncc3c(c2n1)[C@@H](CN1CCC(NCc2ccc4c(n2)NC(=O)CS4)CC1)CO3` (single isomer, unassigned) [Example 16B], ≤ 0.031 µg/mL; under `COc1ccc2ccc3c(c2n1)C(CN1CCC(NCc2ccc4c(c2)NC(=O)CO4)CC1)CO3` (racemic) [Example 15, rac-6-{[1-(2-methoxy-8,9-dihydro-furo[2,3-h]quinolin-9-ylmethyl) -piperidin-4-ylamino]-methyl}-4H-benzo[1,4]oxazin-3-one], ≤ 0.031 µg/mL.
For the molecule `COc1ccc2ncc3c(c2n1)C(CN1CC[C@@H](CNC/C=C/c2cc(F)ccc2F)C1)CO3` (mixture of isomers) [Example 13, [(E)-3-(2,5-difluoro-phenyl)-allyl]-[(3S)-1-((1RS)-8-methoxy-1,2-dihydro-3-oxa-5,9-diaza-cyclopenta[a]naphthalen-1-ylmethyl)-pyrrolidin-3-ylmethyl]-amine], the minimum inhibitory concentration (MIC) was ≤ 0.031 µg/mL.
Consider `COc1ccc2ncc3c(c2n1)C(CN1CCC(NCc2cc4c(nn2)OCCO4)CC1)CO3` (racemic) [Example 8, rac-(6,7-dihydro-[1,4]dioxino[2,3-c]pyridazin-3-ylmethyl)-[1-(8-methoxy-1,2-dihydro-3-oxa-5,9-diaza-cyclopenta[a]naphthalen-1-ylmethyl) -piperidin-4-yl]-amine], for which the minimum inhibitory concentration (MIC) is ≤ 0.031 µg/mL.
Consider `COc1ccc2ncc3c(c2n1)C(CN1CC2C(C1)C2NCc1ccc2c(n1)NC(=O)CO2)CO3` (racemic) [Example 32, 6-{[(1α,5α,6α)-3-((1RS)-8-methoxy-1,2-dihydro-3-oxa-5,9-diaza-cyclopenta[a]naphthalen-1-ylmethyl)-3-aza-bicyclo[3.1.0]hex-6-ylamino]-methyl}-4H-pyrido[3,2-b][1,4]oxazin-3-one], for which the “MIC M. catarrhalis A894” value is reported as “≦0.031 mg/l”.
Regarding `COc1ccc2ncc3c(c2n1)C(CN1CC2C(C1)C2NCc1cc2c(cn1)OCCO2)CO3` (racemic) [Example 33, (2,3-dihydro-[1,4]dioxino[2,3-c]pyridin-7-ylmethyl)-[(1α,5α,6α)-3-((1RS)-8-methoxy-1,2-dihydro-3-oxa-5,9-diaza-cyclopenta[a]naphthalen-1-ylmethyl)-3-aza-bicyclo[3.1.0]hex-6-yl]amine], the “MIC M. catarrhalis A894” value is recorded as “≦0.031 mg/l”.
In the case of `COc1ccc2ncc3c(c2n1)C(CN1CC[C@@H](CNCc2cc4c(cn2)OCCO4)C1)CO3` (mixture of isomers) [Example 12, (2,3-dihydro-[1,4]dioxino[2,3-c]pyridin-7-ylmethyl) -[(3S)-1-((1RS)-8-methoxy-1,2-dihydro-3-oxa-5,9-diaza-cyclopenta[a]naphthalen-1-ylmethyl)-pyrrolidin-3-ylmethyl]-amine], the minimal inhibitory concentration (MIC) is ≤ 0.031 µg/mL.
